From patent publication US20250176547A1, “AGRICULTURE COMPOSITION” (Nippon Kayaku Kabushiki Kaisha, priority 2022, published 2025) come the findings set out here.

Holding throughout (format): in vivo
In one data set the test system is Tetranychus urticae. The experiment in a line: Biological Test Example 1: test for controlling Tetranychus urticae (leaf spray). The following applies: composition diluted 1000 times with water, 30 mL sprayed on kidney bean leaves, 25° C., two days after the treatment. The procedure: Kidney bean leaves were cut into squares that measured 2.5 cm on one side, and the cut leaves were placed on absorbent cotton moistened with water. Ten Tetranychus urticae […] were released thereon. 30 mL of each agricultural composition diluted 1000 times with water was sprayed on the kidney bean leaves by using a hand spray. After air drying, the bean leaves were transferred into a plastic cup and stored in a constant temperature chamber at 25° C. Two days after the treatment, the life and death of the imagoes was observed, and the death rate was calculated.

A further data set has as its system Thrips palmi. The experiment in a line: Biological Test Example 2: test for controlling Thrips palmi (leaf spray). The conditions noted are these: first instar larvae; composition diluted 500 times with water, 30 mL sprayed on kidney bean leaves, 25° C., one day after the treatment. As to the method: (§1) Kidney bean leaves were cut into squares that measured 2.5 cm on one side, and the cut leaves were placed on absorbent cotton moistened with water. Ten first instar larvae of Thrips palmi were released thereon. 30 mL of the agricultural composition diluted 500 times with water was sprayed on the kidney bean leaves using a hand spray. After air drying, the larvae were kept in a constant temperature chamber at 25° C. One day after the treatment, life and death was observed, and the death rate was calculated. In addition, the state of the kidney bean leaves after the test was observed, and the phytotoxicity was also evaluated.

For another data set, the system named is kidney bean leaves. The experiment in a line: Phytotoxicity evaluation of kidney bean leaves after Test Example 2. The procedure: as §1
Evaluation Criteria for Phytotoxicity
• −: No change on the leaf surface • ±: Slight damage is recognized on the leaf surface • +: Damage is recognized on part of the leaf surface • ++: Damage is recognized on the entire surface of the leaf surface

As for `CCCCCCCCCCCCN1CCCC1=O` [Comparative Example 8, N-lauryl-2-pyrrolidone], the Test Example 1 Spider mite imagoes (death rate) with Tetranychus urticae came to 100%. Besides, the Test Example 2 Thrip larvae (death rate) with Thrips palmi stood at 100%. Also, the “Test Example 2 Leaf shape phytotoxicity” value with kidney bean leaves (in vivo) is listed as “+++”.
For “Diglycerin monocaprylic acid ester [Comparative Example 1]”, in the data set on Tetranychus urticae, the Test Example 1 Spider mite imagoes (death rate) was found to be 60%. In the data set on Thrips palmi, this compound came in with a Test Example 2 Thrip larvae (death rate) of 20%. For the same compound, the “Test Example 2 Leaf shape phytotoxicity” value with kidney bean leaves (in vivo) is “−”.
For “N,N-dimethyl fatty acid (C8-10) amide [Comparative Example 4]”, the “Test Example 2 Leaf shape phytotoxicity” value in the data set on kidney bean leaves (in vivo) is recorded as “++”.
“N,N-dimethyl fatty acid (C12-14) amide [Comparative Example 6]”: in the data set with kidney bean leaves (in vivo), the “Test Example 2 Leaf shape phytotoxicity” value is given as “+++”.
“Propylene glycol monolauric acid ester [Comparative Example 3]” returned a Test Example 1 Spider mite imagoes (death rate) in the data set on Tetranychus urticae of 100%. The compound further showed a Test Example 2 Thrip larvae (death rate) in the data set with Thrips palmi of 50%. The “Test Example 2 Leaf shape phytotoxicity” value in the data set on kidney bean leaves (kidney bean leaves after the test, composition diluted 500 times with water) was “−”.
“Sorbitan monolauric acid ester [Comparative Example 2]” registered a Test Example 1 Spider mite imagoes (death rate) with Tetranychus urticae of 0%. The same compound gave a Test Example 2 Thrip larvae (death rate) in the data set with Thrips palmi of 20%. Also, in the data set with kidney bean leaves (in vivo), the “Test Example 2 Leaf shape phytotoxicity” value is “−”.
